# According to patent US7163940B2, “Pyrazolopyridinyl pyrimidine therapeutic compounds” (SmithKline Beecham Corporation, priority 2000, dated 2007):
# Tested on: HSV-1
# Assay: HSV-1 replication in infected Vero 76 cells, viral DNA hybridization capture assay
# Format: cell-based
# Conditions: HSV-1, Vero 76 cells, MOI=0.001, 40–48 hours incubation
# Experimental: Vero 76 cells were maintained in MEM with Earle's salts, L-glutamine, 8% FBS (Hyclone, A-1111-L) and 100 units/mL Penicillin-100 μg/mL Streptomycin. For assay conditions, FBS was reduced to 2%. Cells are seeded into 96-well tissue culture plates at a density of 5×10^4 cells/well after being incubated for 45 min at 37° C. in the presence of HSV-1 or HSV-2 (MOI=0.001). Test compounds are added to the wells and the plates are incubated at 37° C. for 40–48 hours. Cell lysates are prepared as follows: media was removed and replaced with 150 μL/well 0.2 N NaOH with 1% Igepal CA 630 or NP-40. Plates were incubated up to 14 days at room temperature in a humidified chamber to prevent evaporation. • (b) Preparation of Detection DNA.
# For the detection probe, a gel-purified, digoxigenin-labeled, […] PCR fragment of the HSV UL-15 sequence was utilized. PCR conditions included 0.5 μM primers, 180 μM dTP, 20 μM dUTP-digoxigenin (Boehringer Mannheim 1558706), 200 μM each of dATP, dCTP, and dGTP, 1×PCR Buffer II (Perkin Elmer), 2.5 mM MgCl2, 0.025 units/μL of AmpliTaq Gold polymerase (Perkin Elmer), and 5 ng of gel-purified HSV DNA per 100 μL. Extension conditions were 10 min at 95° C., followed by 30 cycles of 95° C. for 1 min, 55° C. for 30 sec, and 72° C. for 2 min. The amplification was completed with a 10-min incubation at 72° C. Primers were selected to amplify a 728 bp probe spanning a section of the HSV1 UL15 open reading frame (nucleotides 249–977). Single-stranded transcripts were purified with Promega M13 Wizard kits. The final product was mixed 1:1 with a mixture of 6 M GuSCN, 100 mM EDTA and 200 μg/mL herring sperm DNA and stored at 4° C. • (c) Preparation of Capture Plates.
# The capture DNA plasmid (HSV UL13 region in pUC) was linearized by cutting with Xba I, denatured for 15 min at 95° C. and diluted immediately into Reacti-Bind DNA Coating Solution (Pierce, 17250, diluted 1:1 with TE buffer, pH 8) at 1 ng/μL 75 μL/well were added to Corning (#3922 or 9690) white 96-well plates and incubated at room temperature for at least 4 hrs before washing twice with 300 μL/well 0.2×SSC/0.05% Tween-20 (SSC/T buffer). The plates were then incubated overnight at room temperature with 150 μL/well 0.2 N NaOH, 1% IGEPAL and 10 μg/mL herring sperm DNA. • (d) Hybridization.
# Twenty-seven (27) μL of cell lysate was combined with 45 μL of hybridization solution (final concentration: 3M GuSCN, 50 mM EDTA, 100 μg/ml salmon sperm DNA, 5× Denhardt's solution, 0.25×APE, and 5 ng of the digoxigenin-labeled detection probe). APE is 1.5 M NH4-acetate, 0.15 M ammonium phosphate, and 5 mM EDTA adjusted to pH 6.0. Mineral oil (50 μL) was added to prevent evaporation. The hybridization plates were incubated at 95° C. for 10 minutes to denature the DNA, then incubated at 42° C. overnight. The wells were washed 6× with 300 μL/well SSC/T buffer then incubated with 75 μL/well anti-digoxigenin-HRP-conjugated antibody (Boehringer Mannheim 1207733, 1:5000 in TE) for 30 min at room temperature. The wells were washed 6× with 300 μL/well with PBS/0.05% Tween-20 before 75 μL/well SuperSignal LBA substrate (Pierce) was added. The plates were incubated at room temperature for 30 minutes and chemiluminescence was measured in a Wallac Victor reader. • e) Results.
# The following results were obtained for HSV-1.
row,SMILES,IC50 [µM]
1,"CCCCNc1nccc(-c2c(-c3ccc(F)cc3)nn3c(NCCC)cccc23)n1 [Example 55, 3-[2-(Butylamino)-4-pyrimidinyl]-2-(4-fluorophenyl)-N-propylpyrazolo[1,5-α]pyridin-7-amine]",1.2
2,"Cc1cc(-c2c(-c3ccc(F)cc3)nn3c(NC4CCCC4)cccc23)nc(NC2CCCC2)n1 [Example 8, N-Cyclopentyl-3-[2-(cyclopentylamino)-6-methyl-4-pyrimidinyl]-2-(4-fluorophenyl)pyrazolo[1,5-α]pyridin-7-amine]",0.8

# Same assay, conditions: Human alphaherpesvirus 1, Vero 76, HSV-1, Vero 76 cells, MOI=0.001, 40–48 hours incubation
row,SMILES,IC50 [µM]
1,"CCCCNc1cccc2c(-c3ccnc(NCCCO)n3)c(-c3ccc(F)cc3)nn12 [Example 38, 3-({4-[7-(Butylamino)-2-(4-fluorophenyl)pyrazolo[1,5-α]pyridin-3-yl]-2-pyrimidinyl}amino)-1-propanol]",5
2,"CCCCNc1nccc(-c2c(-c3ccc(Br)cc3)nn3c(NCCCC)cccc23)n1 [Example 2, 2-(4-Bromophenyl)-N-butyl-3-[2-(butylamino)-4-pyrimidinyl]pyrazolo[1,5-α]pyridin-7-amine]",0.7
3,"COC(=O)CNc1cccc2c(-c3cc(C)nc(NC4CCCC4)n3)c(-c3ccc(F)cc3)nn12 [Example 24, Methyl {[3-[2-(cyclopentylamino)-6-methyl-4-pyrimidinyl]-2-(4-fluorophenyl)pyrazolo[1,5-α]pyridin-7-yl]amino}acetate]",10
4,"CCCCNc1cccc2c(-c3ccnc(N4CCCC4)n3)c(-c3ccc(Br)cc3)nn12 [Example 9, 2-(4-Bromophenyl)-N-butyl-3-[2-(1-pyrrolidinyl)-4-pyrimidinyl]pyrazolo[1,5-α]pyridin-7-amine]",8
5,"Cc1cc(-c2c(-c3ccc(F)cc3)nn3c(N4CCN(C)CC4)cccc23)nc(NC2CCCC2)n1 [Example 15, N-Cyclopentyl-4-[2-(4-fluorophenyl)-7-(4-methyl-1-piperazinyl)pyrazolo[1,5-α]pyridin-3-yl]-6-methyl-2-pyrimidinamine]",5
6,"C=CCNc1nccc(-c2c(-c3ccc(F)cc3)nn3c(NCCCC)cccc23)n1 [Example 39, 3-[2-(Allylamino)-4-pyrimidinyl]-N-butyl-2-(4-fluorophenyl)pyrazolo-[1,5-α]pyridin-7-amine]",1
7,"CCCCNc1nccc(-c2c(-c3ccc(F)cc3)nn3c(-c4ccco4)cccc23)n1 [Example 78, N-Butyl-4-[2-(4-fluorophenyl)-7-(2-furyl)pyrazolo[1,5-α]pyridin-3-yl]pyrimidin-2-amine]",0.95
8,"O=C(NC1CCCC1)c1cc(-c2c(-c3ccc(F)cc3)nn3c(NC4CCCC4)cccc23)nc(NC2CCCC2)n1 [Example 75, N-Cyclopentyl-2-(cyclopentylamino)-6-[7-(cyclopentylamino)-2-(4-fluorophenyl)pyrazolo[1,5-α]pyridin-3-yl]pyrimidine-4-carboxamide]",> 20
9,"CCCCNc1cccc2c(-c3ccnc(N4CCCC4)n3)c(-c3ccc(F)cc3)nn12 [Example 5, N-Butyl-2-(4-fluorophenyl)-3-[2-(1-pyrrolidinyl)-4-pyrimidinyl]pyrazolo[1,5-α]pyridin-7-amine]",5
10,"CN1CCCC1CCNc1cccc2c(-c3ccncc3)c(-c3ccc(F)cc3)nn12 (stereo not drawn) [Example 57, N-[2-(4-Fluorophenyl)-3-(4-pyridinyl)pyrazolo[1,5-α]pyridin-7-yl]-N-[2-(1-methyl-2-pyrrolidinyl)ethyl]amine]",0.7
11,"CCN(CC)c1cccc2c(-c3ccncc3)c(-c3ccc(F)cc3)nn12 [Example 59, N,N-Diethyl-2-(4-fluorophenyl)-3-(4-pyridinyl)pyrazolo[1,5-α]pyridin-7-amine]",4
12,"Cc1cc(-c2c(-c3ccc(F)cc3)nn3c(NN)cccc23)nc(NC2CCCC2)n1 [Example 14, N-Cyclopentyl-4-[2-(4-fluorophenyl)-7-hydrazinopyrazolo[1,5-α]pyridin-3-yl]-6-methyl-2-pyrimidinamine]",5
